Measurements reported in patent publication US20050288309A1, “Fungicidal mixtures” (priority 2002, published 2005).

System: Plasmopara viticola
Test: Activity against Peronospora of grapevines caused by Plasmopara viticola (protective spray test on potted vines)
Format: in vivo, cultivar Müller-Thurgau
Settings: individual active compound, untreated control 70% infection
Description: The active compounds, separately or jointly, were prepared as a 10% emulsion in a mixture of 63% by weight of cyclohexanone and 27% by weight of emulsifier and diluted with water to the desired concentration.
Evaluation was carried out by determining the infected leaf areas in percent. These percentages were converted into efficacies. The efficacy (E) is calculated as follows using Abbot's formula: E=(1α/β)·100 • α corresponds to the fungicidal infection of the treated plants in % and • β corresponds to the fungicidal infection of the untreated (control) plants in %
An efficacy of 0 means that the infection level of the treated plants corresponds to that of the untreated control plants; an efficacy of 100 means that the treated plants were not infected.
The expected efficacies of the mixtures of active compounds are determined using Colby's formula [R. S. Colby, Weeds 15, 20-22 (1967)] and compared with the observed efficacies.
Colby's formula: E=x+y−x·y/100 • E expected efficacy, expressed in % of the untreated control, when using the mixture of the active compounds A and B at the concentrations a and b • x efficacy, expressed in % of the untreated control, when using active compound A at the concentration a • y efficacy, expressed in % of the untreated control, when using active compound B at the concentration b
Leaves of potted vines of the cultivar “Müller-Thurgau” were sprayed to runoff point with an aqueous suspension having the concentration of active compound stated below. The suspension or emulsion was prepared from a stock solution comprising 10% of active compound in a mixture consisting of 70% of cyclohexanone, 20% of wetting agent and 10% of emulsifier. The next day, the undersides of the leaves were inoculated with an aqueous zoospore suspension of Plasmopara viticola. The grapevines were then initially placed in a water-vapor-saturated chamber at 24° C. for 48 hours and then in a greenhouse at 20-30° C. for 5 days. After this period of time, the plants were again placed in a humid chamber for 16 hours to promote sporangiophore eruption. The extent of the development of the disease on the undersides of the leaves was then determined visually.

CC1CCN(c2c(-c3c(F)cc(F)cc3F)c(Cl)nc3ncnn23)CC1 [I, 5-chloro-7-(4-methylpiperidin-1-yl)-6-(2,4,6-trifluorophenyl)-[1,2,4]triazolo[1,5-a]-pyrimidine]
Efficacy in % of the untreated control (0.25 ppm in the spray liquor): 0% | Efficacy in % of the untreated control (1 ppm in the spray liquor): 0% | Efficacy in % of the untreated control (4 ppm in the spray liquor): 29%

COC(=O)N(OC)c1ccccc1COc1ccn(-c2ccc(Cl)cc2)n1 [II-6, pyraclostrobin, reference compound]
Efficacy in % of the untreated control (1 ppm in the spray liquor): 29%
